Where “and” joins values, the source holds several entries; their conditions need not be identical. Equal entries are not always repeated.
Columns and labels:
[1] = tested on: Rat; test: concentration in plasma after dosing; conditions: dosed: Phenolphthalein, 25 mg/kg, iv, Female, F344
[2] = tested on: Rat; test: concentration in plasma after dosing; conditions: dosed: Phenolphthalein, 25 mg/kg, iv, Male, F344
[3] = tested on: Rat; test: concentration in plasma after dosing; conditions: dosed: Phenolphthalein, 25 mg/kg, iv, Male, F344; remark: listed apart in the source
[4] = tested on: Rat; test: concentration in plasma after dosing; conditions: dosed: Phenolphthalein, 25 mg/kg, iv, Male, F344; remark: listed apart in the source
[5] = tested on: Rat; test: concentration in plasma after dosing; conditions: dosed: Phenolphthalein, 25 mg/kg, iv, Male, F344; remark: listed apart in the source
[6] = tested on: Rat; test: concentration in plasma after dosing; conditions: dosed: Phenolphthalein, 25 mg/kg, iv, F344
[7] = tested on: Rat; test: concentration in plasma after dosing; conditions: dosed: Phenolphthalein, 25 mg/kg, iv, Female, F344; remark: listed apart in the source
[8] = tested on: Rat; test: concentration in plasma after dosing; conditions: 16 h; dosed: Phenolphthalein; 25 mg/kg; iv; Male; F344
[9] = tested on: Rat; test: concentration in plasma after dosing; conditions: dosed: Phenolphthalein, 25 mg/kg, iv, Female, F344; remark: listed apart in the source
[10] = tested on: Rat; test: concentration in plasma after dosing; conditions: dosed: Phenolphthalein, 25 mg/kg, iv, Male, F344; remark: listed apart in the source
[11] = tested on: Rat; test: concentration in plasma after dosing; conditions: dosed: Phenolphthalein, 25 mg/kg, iv, Female, F344; remark: listed apart in the source
[12] = tested on: Rat; test: concentration in plasma after dosing; conditions: dosed: Phenolphthalein, 25 mg/kg, iv, Female, F344; remark: listed apart in the source
[13] = tested on: Rat; test: concentration in plasma after dosing; conditions: dosed: Phenolphthalein, 25 mg/kg, iv, Female, F344; remark: listed apart in the source
[14] = tested on: Rat; test: concentration in plasma after dosing; conditions: dosed: Phenolphthalein, 25 mg/kg, iv, Female, F344; remark: listed apart in the source
[15] = tested on: Rat; test: concentration in plasma after dosing; conditions: dosed: Phenolphthalein, 25 mg/kg, iv, Female, F344; remark: listed apart in the source
[16] = tested on: Rat; test: concentration in plasma after dosing; conditions: 16 h; dosed: Phenolphthalein; 25 mg/kg; iv; Female; F344
[17] = tested on: Rat; test: concentration in plasma after dosing; conditions: dosed: Phenolphthalein, 25 mg/kg, iv, Female, F344; remark: listed apart in the source
[18] = tested on: Rat; test: concentration in plasma after dosing; conditions: 12 h; dosed: Phenolphthalein; 25 mg/kg; iv; Female; F344
[19] = tested on: Rat; test: concentration in plasma after dosing; conditions: dosed: Phenolphthalein, 25 mg/kg, iv, Male, F344; remark: listed apart in the source
[20] = tested on: Rat; test: concentration in plasma after dosing; conditions: dosed: Phenolphthalein, 25 mg/kg, iv, Male, F344; remark: listed apart in the source
[21] = tested on: Rat; test: concentration in plasma after dosing; conditions: dosed: Phenolphthalein, 25 mg/kg, iv, Male, F344; remark: listed apart in the source
[22] = tested on: Rat; test: concentration in plasma after dosing; conditions: dosed: Phenolphthalein, 25 mg/kg, iv, Male, F344; remark: listed apart in the source
[23] = tested on: Rat; test: concentration in plasma after dosing; conditions: dosed: Phenolphthalein, 25 mg/kg, iv, Male, F344; remark: listed apart in the source
[24] = tested on: Rat; test: concentration in plasma after dosing; conditions: dosed: Phenolphthalein, 25 mg/kg, iv, Male, F344; remark: listed apart in the source
[25] = tested on: Rat; test: concentration in plasma after dosing; conditions: dosed: Phenolphthalein, 25 mg/kg, iv, Female, F344; remark: listed apart in the source
[26] = tested on: Rat; test: concentration in plasma after dosing; conditions: dosed: Phenolphthalein, 25 mg/kg, iv, Female, F344; remark: listed apart in the source
[27] = tested on: Rat; test: concentration in plasma after dosing; conditions: dosed: Phenolphthalein, 25 mg/kg, iv, Male, F344; remark: listed apart in the source
[28] = tested on: Rat; test: concentration in plasma after dosing; conditions: 16 h; dosed: Phenolphthalein; 25 mg/kg; iv; Male; F344; remark: listed apart in the source
[29] = tested on: Rat; test: concentration in plasma after dosing; conditions: dosed: Phenolphthalein, 25 mg/kg, iv, Female, F344; remark: listed apart in the source
[30] = tested on: Rat; test: concentration in plasma after dosing; conditions: 16 h; dosed: Phenolphthalein; 25 mg/kg; iv; Female; F344; remark: listed apart in the source
[31] = tested on: Rat; test: concentration in plasma after dosing; conditions: dosed: Phenolphthalein, 25 mg/kg, iv, Female, F344; remark: listed apart in the source
[32] = tested on: Rat; test: concentration in plasma after dosing; conditions: dosed: Phenolphthalein, 25 mg/kg, iv, Male, F344; remark: listed apart in the source
[33] = tested on: rat; test: amount in expired air after dosing (umol); conditions: dosed: methanol, 100 mg/kg, iv, male, CDF(F344)/CrlBR
[34] = tested on: rat; test: concentration in blood after dosing; conditions: dosed: furan, inhalation, duration: 4 hr, male, Fischer-344

O=C1OC(c2ccc(O)cc2)(c2ccc(O[C@@H]3O[C@H](C(=O)O)[C@@H](O)[C@H](O)[C@H]3O)cc2)c2ccccc21 (stereo not given in full) [Phenolphthalein Glucuronide]
Conditions	concentration in plasma [ng/mL]
[1], 5 min	69000
[1], 24 h	14700
[2], 1 h	18700
[2], 6 h	10700
[3], 4 h	23300
[3], 7 h	13100
[4], 3 h	6590
[4], 12 h	17300
[5], 4 h	8240
[5], 7 h	14400
[7], 2.5 min	15100
[7], 20 h	9500
[9], 1 h	9080
[9], 6 h	15200
[10], 2 h	22600
[10], 8 h	18600
[11], 4 h	18400
[11], 7 h	19500
[12], 2.5 min	10400
[12], 20 h	8670
[13], 2 h	16300
[13], 8 h	22700
[14], 1 h	22300
[14], 6 h	8560
[15], 3 h	39000
[15], 12 h	18000
[17], 2 h	14600
[17], 8 h	17000
[19], 1 h	19000
[19], 6 h	35900
[20], 5 h	8040
[20], 10 h	11300
[21], 2 h	7950
[21], 8 h	9110
[22], 5 min	23700
[22], 24 h	6100
[23], 3 h	32000
[23], 12 h	10500
[24], 2.5 min	2320
[24], 20 h	8550
[25], 5 min	3250
[25], 24 h	5140
[26], 5 h	16500
[26], 10 h	11300
[27], 5 h	10900
[27], 10 h	10700
[29], 4 h	14000
[29], 7 h	13700
[31], 5 h	16900
[31], 10 h	13300
[32], 5 min	21100
[32], 24 h	5330

concentration in plasma [ng/mL], [6]
Conditions	Female	Male
1 h	6220	13200
2 h	22800	1490
2.5 min	26600	4740
3 h	47900	7190
4 h	50600	4000
5 h	17900	2270
5 min	49000	22300
6 h	18700	11800
7 h	35300	4350
8 h	16900	3650
10 h	11900	5440
12 h	24900	8240
16 h	8190	9210
20 h	16200	8080
24 h	9270	6210

Conditions	concentration in plasma [ng/mL]
[8]	37500
[16]	8150
[18]	14800
[28]	7180
[30]	21500

O=C1OC(c2ccc(O)cc2)(c2ccc(O[C@@H]3O[C@H](C(=O)O)[C@@H](O)[C@H](O)[C@H]3O)cc2)c2ccccc21 (stereo not given in full) [Phenolphthalein glucuronide]
[6], Male
Conditions	concentration in plasma [ng/mL]
2.5 min	6980
20 h	8900

O=C=O [carbon dioxide]
[33]
Conditions	amount in expired air
0.2199 h	1.76
0.5362 h	6.28
0.9412 h	13.1
1.448 h	25.8
1.93 h	37.7
2.933 h	81.5
4.445 h	151
5.995 h	221
8.01 h	278
10.01 h	322
12.03 h	335
15.08 h	344

c1ccoc1 [furan]
[34]
Conditions	concentration in blood
0.1053 h, 52 ppm	111 ng/mL
0.1054 h, 52 ppm	93 ng/mL
0.1745 h, 107 ppm	142 ng/mL
0.3024 h, 107 ppm	101 ng/mL
0.3025 h, 107 ppm	88.4 ng/mL
0.5398 h, 208 ppm	98.4 ng/mL
0.54 h, 208 ppm	82.3 ng/mL
0.7855 h, 208 ppm	47 ng/mL
0.7856 h, 208 ppm	41.2 ng/mL
0.7857 h, 208 ppm	35.7 ng/mL
130 s, 107 ppm	387 ng/mL and 348 ng/mL
131 s, 107 ppm	309 ng/mL
132 s, 208 ppm	945 ng/mL
133 s, 208 ppm	772 ng/mL and 654 ng/mL
